Measured values from the NIST ThermoML archive (doi:10.1021/je800150h).

Assay: xn = mol fraction of the nth substance listed
Settings: 101 kPa, Liquid

CCO [ethanol] + O
Settings	mass density [kg/m3]	viscosity [mPa·s]
298.15 K, x2 = 0.1	797.7	1.249
298.15 K, x2 = 0.2	811	1.353
298.15 K, x2 = 0.3	825.1	1.513
298.15 K, x2 = 0.4	840.6	1.651
298.15 K, x2 = 0.5	859.2	1.84
298.15 K, x2 = 0.6	880.6	2.089
298.15 K, x2 = 0.7	905.3	2.35
298.15 K, x2 = 0.8	931.3	2.45
298.15 K, x2 = 0.9	960.3	1.92
303.15 K, x2 = 0.1	793	1.156
303.15 K, x2 = 0.2	806	1.218
303.15 K, x2 = 0.3	820.6	1.356
303.15 K, x2 = 0.4	836.1	1.446
303.15 K, x2 = 0.5	854.8	1.598
303.15 K, x2 = 0.6	876.1	1.812
303.15 K, x2 = 0.7	901	2.04
303.15 K, x2 = 0.8	927.6	2.101
303.15 K, x2 = 0.9	956.2	1.656
308.15 K, x2 = 0.1	788.2	1.067
308.15 K, x2 = 0.2	801.4	1.11
308.15 K, x2 = 0.3	816	1.215
308.15 K, x2 = 0.4	831.4	1.296
308.15 K, x2 = 0.5	850.1	1.407
308.15 K, x2 = 0.6	871.4	1.582
308.15 K, x2 = 0.7	896.5	1.78
308.15 K, x2 = 0.8	923.8	1.772
308.15 K, x2 = 0.9	952.7	1.448
313.15 K, x2 = 0.1	783.6	0.92
313.15 K, x2 = 0.2	796.8	1.004
313.15 K, x2 = 0.3	811.1	1.096
313.15 K, x2 = 0.4	826.9	1.149
313.15 K, x2 = 0.5	845.2	1.27
313.15 K, x2 = 0.6	866.8	1.43
313.15 K, x2 = 0.7	892	1.56
313.15 K, x2 = 0.8	919.5	1.557
313.15 K, x2 = 0.9	949	1.271
318.15 K, x2 = 0.1	779	0.86
318.15 K, x2 = 0.2	792.2	0.925
318.15 K, x2 = 0.3	806.6	0.998
318.15 K, x2 = 0.4	822.4	1.039
318.15 K, x2 = 0.5	840.5	1.14
318.15 K, x2 = 0.6	862.1	1.27
318.15 K, x2 = 0.7	887.4	1.371
318.15 K, x2 = 0.8	915.5	1.369
318.15 K, x2 = 0.9	945.5	1.121
323.15 K, x2 = 0.1	774.3	0.76
323.15 K, x2 = 0.2	787.5	0.839
323.15 K, x2 = 0.3	801.9	0.902
323.15 K, x2 = 0.4	817.7	0.932
323.15 K, x2 = 0.5	835.8	1.02
323.15 K, x2 = 0.6	857.3	1.14
323.15 K, x2 = 0.7	883	1.17
323.15 K, x2 = 0.8	911.2	1.202
323.15 K, x2 = 0.9	942	0.975
